Results: US20260206761A1, “HETEROARYL-TRIAZOLE COMPOUNDS AS PESTICIDES” (Bayer Aktiengesellschaft, priority 2019, published 2026)

Assays:
Assay type in all cases: in vivo
[1] = system: Rhipicephalus microplus larvae (strain Parkhurst, resistant against synthetic pyrethroids); assay: Rhipicephalus (Boophilus) microplus in-vitro contact test, larval cattle tick; conditions: after 48 hours, read-out: activity (efficacy: larvae dead or moribund); for pest or weed control at 100 g/ha: application rate 1 pg/cm^2 (=100 g/ha); for pest or weed control at 500 g/ha: application rate 5 pg/cm^2 (=500 g/ha)
Experimental: Rhipicephalus (Boophilus) microplus—In-Vitro Contact Tests Larval Cattle Tick (Strain Parkhurst. Resistant Against Synthetic Pyrethroids)
(§1) 9 mg compound is solved in 1 mL acetone and diluted with acetone to the desired concentration. 250 μL of the test solution is filled in 25 mL glass test tubes and homogeneously distributed on the inner walls by rotation and tilting on a shaking device (2 h at 30 rpm). With a compound concentration of 900 ppm, an inner surface of 44.7 cm^2 and a homogeneous distribution, a dose of 5 μg/cm^2 is achieved.
After the solvent has evaporated, each test tube is filled with 20-50 cattle tick larvae (Rhipicephalus microplus), closed with a perforated lid and incubated in a horizontal position at 85% relative humidity and 27° C. in an incubator. After 48 hours efficacy is determined. The larvae are patted on the ground of the tubes and negative geotactic behaviour is recorded.
An efficacy of 100% means all larvae are dead or moribund; 0% means no larvae are dead or moribund.

[2] = system: adult engorged female ticks (Rhipicephalus microplus); assay: Rhipicephalus (Boophilus) microplus injection test; conditions: 168 h, egg deposition after 7 days, read-out: activity (efficacy: infertile eggs); for pest or weed control at 4 pg: application rate 4 pg/animal; for pest or weed control at 0.02 mg: application rate 20 μg/animal
Experimental: Rhipicephalus (Boophilus) microplus—Injection Test
(§2) Solvent: dimethyl sulfoxide
To produce a suitable preparation of active compound, 10 mg of active compound are dissolved in 0.5 mL solvent, and the concentrate is diluted with solvent to the desired concentration.
Five adult engorged female ticks (Rhipicephalus microplus) are injected with 1 μL compound solution into the abdomen. The ticks are transferred into replica plates and incubated in a climate chamber.
After 7 days egg deposition of fertile eggs is monitored. Eggs where fertility is not visible are stored in a climate chamber till hatching after about 42 days. An efficacy of 100% means all eggs are infertile; 0% means all eggs are fertile.

[3] = system: adult unfed cat fleas (Ctenocephalides felis); assay: Ctenocephalides felis oral test; conditions: 48 h, read-out: activity (mortality)
Experimental: Ctenocephalides felis—Oral Test
as §2
To produce a suitable preparation of active compound, 10 mg of active compound are dissolved in 0.5 mL solvent, and the concentrate is diluted with cattle blood to the desired concentration.
Approximately 20 adult unfed cat fleas (Ctenocephalides felis) are placed in flea chambers. The blood chamber, sealed with parafilm on the bottom, are filled with cattle blood supplied with compound solution and placed on the gauze covered top of the flea chamber, so that the fleas are able to suck the blood. The blood chamber is heated to 37° C. whereas the flea chamber is kept at room temperature.
After 2 days mortality in % is determined. 100% means all the fleas have been killed; 0% means none of the fleas have been killed.

[4] = system: fall armyworm larvae (Spodoptera frugiperda); assay: Spodoptera frugiperda spray test; conditions: 168 h, read-out: activity (mortality)
Experimental: Spodoptera frugiperda—Spray Test
Solvent: 78.0 parts by weight acetone • 1.5 parts by weight dimethylformamide
(§3) Emulsifier: alkylarylpolyglycol ether
(§4) To produce a suitable preparation of active compound, 1 part by weight of active compound is mixed with the stated amount of solvents and is diluted with water, containing an emulsifier concentration of 1000 ppm, to the desired concentration. Further test concentrations are prepared by dilution with emulsifier containing water.
Maize (Zea mays) leaf sections are sprayed with a preparation of the active ingredient of the desired concentration. Once dry, the leaf sections are infested with fall armyworm larvae (Spodoptera frugiperda).
After 7 days mortality in % is determined. 100% means all caterpillars have been killed and 0% means none of the caterpillars have been killed.

[5] = system: larvae of the banded cucumber beetle (Diabrotica balteata); assay: Diabrotica balteata spray test; conditions: 168 h, after 7 days, read-out: activity (efficacy: seedlings grown); for pest or weed control at 100 g/ha: application rate 100 g/ha (=32 pg/well)
Experimental: Diabrotica balteata—spray test
(§5) Solvent: 78.0 parts by weight of acetone • • 1.5 parts by weight of dimethylformamide
as §3
as §4, with “solvent,” for “solvents”, “and the concentrate” for “and”
Soaked wheat seeds (Triticum aestivum) are placed in a multiple well plate filled with agar and some water and are incubated for 1 day to germinate (5 seeds per well). The germinated wheat seeds are sprayed with a test solution containing the desired concentration of the active ingredient. Afterwards each unit is infected with 10-20 larvae of the banded cucumber beetle (Diabrotica balteata).
After 7 days efficacy in % is determined. 100% means all the seedlings have grown up like in the untreated, uninfected control; 0% means none of the seedlings have grown.

[6] = system: adult brown dog ticks (Rhipicephalus sanguineus); assay: Rhipicephalus sanguineus in-vitro contact test, adult brown dog ticks; conditions: after 48 hours, read-out: activity (efficacy: ticks dead or moribund); for pest or weed control at 100 g/ha: application rate 1 pg/cm^2 (=100 g/ha); for pest or weed control at 5 µg/cm2, 500 g/ha: application rate 5 μg/cm^2 (=500 g/ha)
Experimental: Rhipicephalus sanguineus—In-Vitro Contact Tests with Adult Brown Dog Ticks
as §1
After the solvent has evaporated, each test tube is filled with 5-10 adult brown dog ticks (Rhipicephalus sanguineus), closed with a perforated lid and incubated in a lying position at room temperature and relative humidity. After 48 hours efficacy is determined. The ticks are patted on the ground of the tubes and are incubated on a heating plate at 45-50° C. for at most 5 minutes. Immotile or uncoordinated moving ticks, which are not able to escape the heat by climbing upwards, are marked as dead or moribund.
An efficacy of 100% means all ticks are dead or moribund; 0% means no ticks are dead or moribund.

[7] = system: green peach aphid (Myzus persicae); assay: Myzus persicae oral test; conditions: 120 h, application rate 4 ppm, after 5 days
Experimental: Solvent: 100 parts by weight acetone
To produce a suitable preparation of active compound, 1 part by weight of active compound is mixed with the stated amount of solvent, and the concentrate is diluted with water to the desired concentration.
50 μL compound solution is filled in microtiter plates and 150 μL IPL41 insect medium (33%+15% sugar) is added to obtain a total volume of 200 μL per well. Afterwards the plates are sealed with parafilm through which a mixed population of the green peach aphid (Myzus persicae) can suck on the compound preparation.
After 5 days mortality in % is determined. 100% means all aphids have been killed and 0% means none of the aphids have been killed.

[8] = system: larvae of the southern green stink bug (Nezara viridula); assay: Nezara viridula spray test; conditions: 96 h, after 4 days; for mortality at 100 g/ha: application rate 100 g/ha; for mortality at 500 g/ha: application rate 500 g/ha
Experimental: Nezara viridula—Spray Test
as §5, §3
as §4, with “solvent,” for “solvents”, “and the concentrate” for “and”
Barley plants (Hordeum vulgare) infested with larvae of the southern green stink bug (Nezara viridula) are sprayed with a test solution containing the desired concentration of the active ingredient.
After 4 days mortality in % is determined. 100% means all the stink bugs have been killed; 0% means none of the stink bugs have been killed.

SMILES | pest or weed control at 100 g/ha [1] | pest or weed control at 500 g/ha [1] | pest or weed control at 4 pg [2] | pest or weed control at 0.02 mg [2] | mortality at 100 ppm [3] | mortality at 100 g/ha [4] | mortality at 500 g/ha [4] | pest or weed control at 100 g/ha [5] | pest or weed control at 100 g/ha [6] | pest or weed control at 5 µg/cm2, 500 g/ha [6] | mortality at 4 ppm [7] | mortality at 100 g/ha [8] | mortality at 500 g/ha [8] | pest or weed control at 500 g/ha ([5]; application rate 500 g/ha (=160 pg/well))
CCCc1nc([C@H](C)NC(=O)c2cc(Cl)cc(S(C)(=O)=O)c2)n(-c2ccc(C#N)cn2)n1 [I-2] | 100% | 100% | 100% | 100% | 100% | 83% | 100% |  |  |  |  |  |  | 
CCS(=O)(=O)c1cc(Cl)cc(C(=O)N[C@@H](C)c2nc(C3CC3)nn2-c2ccc(C#N)cn2)c1 [I-20] | 100% | 100% | 100% | 100% | 100% | 100% |  | 80% |  |  |  |  |  | 
C[C@H](NC(=O)c1cc(Cl)cc(S(=O)(=O)C(F)F)c1)c1nc(C2CC2)nn1-c1ccc(C#N)cn1 [I-27] | 100% | 100% | 100% |  | 100% | 100% |  | 100% |  |  |  |  |  | 
COc1nc([C@H](C)NC(=O)c2cc(OC(F)(F)F)cc(C3CC3)c2)n(-c2ccc(C#N)cn2)n1 [I-44] | 100% | 100% | 100% |  |  | 100% |  | 100% | 100% | 100% | 90% |  |  | 
C[C@H](NC(=O)c1cc(Cl)cc(S(C)(=O)=O)c1)c1nc(C2CC2)nn1-c1ccc(Cl)cn1 [I-58] | 100% | 100% |  |  |  | 100% |  | 100% | 100% | 80% | 100% | 100% | 100% | 
C[C@H](NC(=O)c1cc(Cl)cc(S(=O)(=O)C2CC2)c1)c1nc(C2CC2)nn1-c1ccc(Cl)cn1 [I-59] | 100% | 100% |  |  |  | 100% |  | 80% |  |  | 100% | 100% | 100% | 
C[C@H](NC(=O)c1cc(F)cc(S(C)(=O)=O)c1)c1nc(C2CC2)nn1-c1ccc(Cl)cn1 [I-60] | 100% | 100% |  |  |  | 100% |  | 100% | 100% | 100% | 100% | 100% | 100% | 
C[C@H](NC(=O)c1cc(OC(F)F)cc(S(C)(=O)=O)c1)c1nc(C2CC2)nn1-c1ccc(C#N)cn1 [I-65] |  |  |  |  |  | 100% |  | 100% |  |  | 100% | 100% | 100% | 
C[C@H](NC(=O)c1cc(OC(F)(F)F)cc(S(C)(=O)=O)c1)c1nc(C2CC2)nn1-c1ccc(Cl)cn1 [I-69] |  |  |  |  |  | 100% |  | 100% |  |  | 100% | 90% |  | 
COc1nc([C@H](C)NC(=O)c2cc(Br)cc(C3(F)CC3)c2)n(-c2ccc(C#N)cn2)n1 [I-71] | 100% | 100% |  |  |  | 100% |  | 100% |  |  | 100% |  |  | 
COc1nc([C@H](C)NC(=O)c2cc(OC(F)F)cc(C3CC3)c2)n(-c2ccc(C#N)cn2)n1 [I-74] | 100% | 100% |  |  |  | 100% |  | 80% |  |  | 100% |  |  | 
COc1nc([C@H](C)NC(=O)c2cc(OC(F)(F)F)cc(S(C)(=O)=O)c2)n(-c2ccc(C#N)cn2)n1 [I-75] |  |  |  |  |  | 100% |  | 80% |  |  | 100% | 100% | 90% | 
COc1nc([C@H](C)NC(=O)c2cc(OC(F)F)cc(C3CC3)c2)n(-c2ncc(Cl)cn2)n1 [I-76] | 100% | 100% |  |  |  | 100% |  | 100% |  |  | 100% |  |  | 
C[C@H](NC(=O)c1cc(Cl)cc(C2(C#N)CC2)c1)c1ncnn1-c1nccs1 [II-5] |  |  | 100% | 100% | 100% |  | 100% |  |  |  |  |  |  | 100%
C[C@H](NC(=O)c1cc(C(F)(F)F)cc(S(C)(=O)=O)c1)c1ncnn1-c1ccc(S(C)(=O)=O)cn1 [II-56, 3-(methylsulfonyl)-N-[(1S)-1-{1-[5-(methylsulfonyl)pyridin-2-yl]-1H-1,2,4-triazol-5-yl}ethyl]-5-(trifluoromethyl)benzamide] |  |  | 100% |  | 100% |  |  |  |  |  |  |  |  | 
C[C@H](NC(=O)c1cc(OC(F)F)cc(C2CC2)c1)c1ncnn1-c1ccc(C#N)cn1 [II-62] | 100% | 100% | 100% |  |  | 100% |  | 100% | 100% | 100% | 100% |  |  | 
